Assay results taken from patent publication US11078236B2, “Selenium-based therapies” (Burke Neurological Institute, priority 2017, dated 2021).
“Also recorded” adds a separate entry of the source. Starred links: 1 amine or outer side, 2 acyl side, 3 side chain; linkers in the order of their positions; H or OH if unused. Positions of bridges follow the written chain, without caps; N, C: chain ends. Non-standard residues stand in square brackets, D forms with d. Residues, ends and D or L forms follow the SMILES beside them. Chains are numbered I, II in the order given. Actinocin(9to1) = Cc1c2oc3c(C)ccc(C(=O)[*:1])c3nc-2c(C(=O)[*:2])c(N)c1=O; NMeV = CN[C@H](C(=O)O)C(C)C; Sec = N[C@@H](C[SeH])C(=O)O; Sar = CNCC(=O)O

Tests used:
[1] = tested on: GPX4 and other selenoprotein genes; test: Quantitative PCR of antioxidant/selenoprotein genes in neurons; format: cell-based, mice or rats
Experimental: (§1) Total RNA was prepared using the NucleoSpin RNA II kit (MACHEREYNAGEL) according to the manufacturer's protocol. Duplex real-time PCR reactions were performed with gene expression assays using 6-carboxyfluorescein-labeled probes (Applied Biosystems) for antioxidant enzymes. All expression levels were normalized to β-actin gene expression levels, which were determined with a VIC-labeled probe (Applied Biosystems). All experiments were performed using a Quant 6 Real-Time PCR System (Applied Biosystems).
(§2) Primary cortical neurons were obtained from either embryonic (E15) CD1 mice or embryonic (E17) Sprague-Dawley rats. Briefly, cortices were dissected, homogenized, and plated in minimum essential medium containing 10% fetal bovine serum (FBS), 5% horse serum, and 1% penicillin/streptomycin in 96-well plates, 6-well plates, or 10-cm dishes. Neurons were maintained at 37° C. with 5% CO2. All experiments were started at 24 hours after plating.

GPX4-deficient neurons = test: Survival of neurons with siRNA knockdown of GPX4; format: cell-based, mice or rats; settings: 50 μM NAC, siGPX4
Description: Knock down of GPX4 was achieved by using lipofectamine RNAimax (Thermo-Fisher) to transfect primary cortical neurons with specific siRNA against GPX4. Three different sequences of siRNA were used separately to validate target specificity as opposed to sequence specificity. Knockdown was validated by mRNA and protein.

primary cortical neurons [2] = test: In vitro ICH model: hemin-induced ferroptosis, MTT survival and Live/Dead assay; format: cell-based, mice or rats; settings: for toxicity / therapeutic window in cultured neurons: in vitro, increasing concentrations
Experimental: as §2
Cell death was induced in primary cortical neurons and hippocampal HT22 cells by treatment with hemin ([…]; Sigma). For the neuroprotection studies, cells were treated with 80 μM hemin in the presence of sodium selenite (Sigma) diluted in water. Cell viability was analyzed 16 hours after treatment. Cells were rinsed with warm phosphate-buffered saline (PBS) and assessed by MTT assay. The fidelity of MTT assays in measuring viability was verified by calcein-AM/ethidium homodimer-1 staining (Live/Dead assay, Molecular Probes) following the manufacturer's instructions.

[3] = tested on: GPX4 and selenoprotein mRNA in striatum; format: in vivo, mouse; settings: ICV injection
Experimental: FIG. 5A is a schematic showing ICV injection of dose dependent Se (1-5 μM) and collection of striatum 6 hours later to extract RNA for quantitative PCR.
Male C57BL/6 mice (8 to 10 weeks of age; Charles River) were anesthetized with isoflurane (2 to 5%) and placed on a stereotaxic frame. During the procedure, the animal's body temperature was maintained at 37° C. with a homeothermic blanket. With a nanomite syringe pump (Harvard Apparatus) and a Hamilton syringe, […] of collagenase (0.075 IU; Sigma) was infused into the right striatum at a flow rate of 0.120 ml/min. Relative to the bregma point, the stereotaxic coordinates of the injection were as follows: lateral, −0.20; anteroposterior, 0.62; and dorsoventral, −0.40. In control animals, […] of saline was infused. The treatment group received sodium selenite (1-5 μM) 2 hours after collagenase infusion directly into the ventricals. The control groups received vehicle (saline) alone. The animals were randomized to sham or ICH groups. The identity of the mice that received vehicle or Se was masked to surgeons who performed the ICH. […]
Total RNA was prepared using the NucleoSpin RNA II kit (MACHEREYNAGEL) according to the manufacturer's protocol. […] All expression levels were normalized to β-actin gene expression levels, which were determined with a VIC-labeled probe (Applied Biosystems). […]

[4] = ICP-MS measurement of selenium levels; parameters: species or system mouse; settings: in vitro and in vivo after Se treatment
Experimental: FIG. 2M is a graph showing inductively coupled mass spectrometry (ICP-MS) measurement of selenium levels normalized to protein concentration in cortical neurons treated with 80 μM hemin and/or Se.
FIG. 5D is a graph showing inductively coupled mass spectrometry (ICP-MS) measurement of selenium levels normalized to protein concentration following ICH and ICH+2.5 μM Se in striatum at 24 h post treatment (n=8).

primary cortical neurons [5] = test: Oxidative stress-induced neuronal death: HCA-induced ferroptosis, MTT survival; format: cell-based, mice or rats; settings: HCA 5 mM, survival at 24 h
Experimental: as §2
Primary cortical neurons and HT22 cells were exposed to 5 mM HCA (glutamate structural analog) to induce oxidative stress-induced cell death, and sodium selenite (Sigma) was applied in media. 24 hours after treatment with HCA, the cells were rinsed with warm PBS, and cell viability was assessed by MTT assay (Life Technologies) and calcein-AM/ethidium homodimer-1 staining (Live/Dead assay, Molecular Probes).

[6] = tested on: collagenase mouse model of ICH; test: Collagenase-induced mouse model of ICH: behavior, fluorojade, immunofluorescence; format: in vivo
Experimental: Male C57BL/6 mice (8 to 10 weeks of age; Charles River) were anesthetized with isoflurane (2 to 5%) and placed on a stereotaxic frame. During the procedure, the animal's body temperature was maintained at 37° C. with a homeothermic blanket. With a nanomite syringe pump (Harvard Apparatus) and a Hamilton syringe, […] of collagenase (0.075 IU; Sigma) was infused into the right striatum at a flow rate of 0.120 ml/min. Relative to the bregma point, the stereotaxic coordinates of the injection were as follows: lateral, −0.20; anteroposterior, 0.62; and dorsoventral, −0.40. In control animals, […] of saline was infused. […] The control groups received vehicle (saline) alone. The animals were randomized to sham or ICH groups. The identity of the mice that received vehicle or Se was masked to surgeons who performed the ICH. […] Proper postoperative care was taken until the animals recovered completely.
The corner task assessed the integrated sensorimotor function in both stimulation of vibrissae (sensory neglect) and rearing (motor response) (See Schallert et al., Neuropharmacology 39(5): p. 777-87 (2000)). Mice were placed between two cardboard pieces forming a corner with a 30° angle. While maintaining the 30° angle, the boards were gradually moved toward the mouse until the mouse approached the corner, reared upward, and turned 180° to face the open end. The direction (left or right) in which the mouse turned around was recorded for each trial. Ten trials were performed for each mouse. The adhesive tape removal task in mice was performed as previously described. Briefly, adhesive tape was placed on the planter region of the forward paw (right and left) of mice. The time from which the tape was applied to when the mouse successfully removed it was recorded for each paw. A maximum of 300 s for each paw was allowed.
For immunocytochemical experiments in the brain, three control mice with induced unilateral stroke and three selenium-treated mice with induced unilateral stroke were perfusion fixed with 4% PFA in PBS for 15 min. The brains were isolated and postfixed for 1 h in 4% PFA. After cryoprotection in a sucrose gradient, brain sections were cut at 30 μm.
Free-floating brain sections were blocked for 1 h in a PBS solution containing 3% bovine serum (Sigma), and 0.5% Triton X-100 (Biorad). Primary antibodies were diluted in the same solution and applied for 12 h, followed by incubation for 1 h with the appropriate secondary antibody, conjugated to Alexa 488 (1:1000; green fluorescence, Molecular Probes) or Alexa 568 (1:1000; red fluorescence, Molecular Probes). For nuclear labeling, ToPro was added to the mixture (1:15000, far red fluorescence, Invitrogen, T3605). […]

GPX4 mRNA = GPX4 mRNA in organs after intraperitoneal injection of peptides; format: in vivo, mouse; settings: 12 μg/g intraperitoneal, 24 h
Experimental: FIG. 69B quantifies GPX4 mRNA levels 24 h following IP injection of SelPep (4-12 μg/g; n=3) in the striatum, cortex, heart or liver.
as §1

[7] = 12 μg/g IP from 2 h post-ICH, daily for 7 days, from day 3, significant by day 14

CC(=O)N[C@@H](CS)C(=O)O [NAC, N-acetylcysteine]
effect on GPX4 expression ([1]; 50 μM NAC): no effect on GPX4 mRNA levels; also recorded: without affecting GPX4 expression | survival of GPX4-deficient neurons (GPX4-deficient neurons): prevents cell death due to GPX4 molecular depletion; also recorded: protected GPX4-deficient neurons; also recorded: prevents cell death due to GPX4 knockdown

O=[Se](O)O [Se, Sodium selenite]
toxicity / therapeutic window in cultured neurons (primary cortical neurons [2]): parabolic dose response with a narrow therapeutic window | toxicity or death in mice ([3]; any concentration (1-5 μM)): no toxicity or death | optimal Se concentration for inducing selenoprotein expression ([3]; uninjured mice, striatum 6 h later): 2.5 µM | selenium levels by ICP-MS [4]: significant increases in cellular selenium

CC(C)C[C@H](NC(=O)[C@H](CC(N)=O)NC(=O)[C@H](C[SeH])NC(=O)[C@H](CCCCN)NC(=O)[C@H](C[SeH])NC(=O)[C@H](CCCCN)NC(=O)[C@H](CCCNC(=N)N)NC(=O)[C@H](CCCNC(=N)N)NC(=O)[C@H](CCCNC(=N)N)NC(=O)[C@H](CCC(N)=O)NC(=O)[C@H](CCCNC(=N)N)NC(=O)[C@H](CCCNC(=N)N)NC(=O)[C@H](CCCCN)NC(=O)[C@H](CCCCN)NC(=O)[C@H](CCCNC(=N)N)NC(=O)CNC(=O)[C@@H](N)Cc1ccc(O)cc1)C(=O)N[C@@H](CC(N)=O)C(N)=O [Tat-SelPep] (H-YGRKKRRQRRRK[Sec]K[Sec]NLN-NH2)
single cell analysis of cell viability and death (live/dead) (primary cortical neurons [2]; hemin 80 μM, 16 h, 1 μM peptide): prevented hemin induced ferroptosis and completely preserved cell bodies and neurites of neurons | protection from hemin-induced ferroptosis (primary cortical neurons [2]; hemin 80 μM, survival at 16 h, MTT): concentration dependent protection | toxicity / therapeutic window in cultured neurons (primary cortical neurons [2]): wide therapeutic window with no apparent toxicity | protection from HCA-induced ferroptosis (primary cortical neurons [5]): concentration dependent protection | GPX4, SeIP, TXNRD1, GPX3 and SelK mRNA ([1]; 1 μM peptide, 6 h post-treatment): induced significant increases | cell death measured by Fluoro-Jade staining ([6]; 12 μg/g IP from 2 h post-ICH, daily for 7 days): reduced cell death | sensory neglect task [6, 7]: improved | spatial neglect task [6, 7]: improved | behavior outcomes in animals overexpressing mSp1 ([6]; AAV8-mSp1 in striatum, 12 μg/g IP, day 14 post-stroke): fail to demonstrate significant behavior improvements | GPX4 expression in heart, liver, striatum and cortex (GPX4 mRNA): induced significant expression of GPX4

Cc1c2oc3c(C)ccc(C(=O)N[C@@H]4C(=O)N[C@H](C(C)C)C(=O)N5CCC[C@H]5C(=O)N(C)CC(=O)N(C)[C@@H](C(C)C)C(=O)O[C@@H]4C)c3nc-2c(C(=O)N[C@@H]2C(=O)N[C@H](C(C)C)C(=O)N3CCC[C@H]3C(=O)N(C)CC(=O)N(C)[C@@H](C(C)C)C(=O)O[C@@H]2C)c(N)c1=O [actinomycin-D] (I: T[dV]P[Sar][NMeV] / II: T[dV]P[Sar][NMeV]; ester I:1-I:C, II:1-II:C; linker I:N-II:N via Actinocin(9to1))
protection against hemin toxicity induced by Se (primary cortical neurons [2]; co-treatment with transcription inhibitor, MTT): abrogated protection; also recorded: abolished protection against hemin toxicity | Se-dependent increase in GPX4 mRNA ([1]; co-treatment with transcription inhibitor): inhibited Se-dependent increase in GPX4 mRNA
